System: MRSA 16116
Test: Time-killing curve, inoculum 5.10^5 CFU/ml (MIC 0.5 μg/ml)
Assay type: cell-based, Staphylococcus aureus
Method: The objective of this study is to assess in vitro the time-killing curves of oxyclozanide against four strains of Methicillin-Resistant Staphylococcus from dogs.
Two Methicillin-Resistant Staphylococcus aureus (MRSA) and two Methicillin-Resistant Staphylococcus pseudintermedius (MRSP) isolated from the clinics have been tested.
The assessment of time-killing curves has been realized by a broth macrodilution method (Mueller-Hinton II Broth).
Oxyclozanide is diluted in (DMSO) into sterile tubes in order to obtain the following concentrations from 800 to 6.25 μg/ml. Those concentrations and stock standard solution are then diluted (1/10) in Mueller-Hinton II Broth in order to obtain the following concentrations from […] (See Table 2).
Each operation is performed under sterile conditions. Each working standard solution (10*the final active ingredient concentration) is distributed in tubes (1 ml, for a final volume of 10 ml after addition of 9 ml of inoculum). One tube without active ingredient is used as growth control (Concentration=0).
Bacterial isolates are sub-cultured from one cryobead on Columbia agar supplemented with 5% of blood. Pure cultures are incubated during 18-24 hours at 37° C. Three to five isolated colonies of similar appearance are selected from a previous culture and transferred into tubes containing 9 ml of Mueller-Hinton II Broth. The broth is incubated during 12-18 hours at 37° C. 0.5 to 1 ml of this broth is inoculated to another Mueller-Hinton II Broth 9 ml tube which is incubated during 3 to 4 hours at 37° C. to reach the exponential growth phase. The bacterial inoculum grown exponential phase is suspended to an optical density of McFarland standard scale 0.5 equivalent to a bacterial density of 10^8 CFU/ml and then adjusted to a concentration of about 5.10^5 CFU/ml as indicated by the guideline CLSI M26-A and to a second inoculum tested: 10^6 CFU/ml.
9 ml of bacterial inoculum grown to exponential phase is added to 1 ml of active ingredient (or Mueller Hinton II Broth for the growth control). Tubes are incubated at 35° C. during 24 hours.
At times 0, 2, 4, 6 and 24 hours, 100 μl of broth of each tube is sampled and diluted in microplates:
Each well is re-cultured by streaking 10 μl on Columbia agar supplemented with 5% of blood. Plates are incubated at 37° C. during 18-24 hours incubation. Thus, residual bacterial concentrations are determined (CFU/ml). Results are expressed in log10 values of CFU/ml over-time in broth. Due to the procedure used, the minimal bacterial concentration that can be assessed is 10^2 CFU/ml.

SMILES: O=C(Nc1cc(Cl)cc(Cl)c1O)c1c(O)c(Cl)cc(Cl)c1Cl [Oxyclozanide]
- Counting results (1 MIC, 0 h): 3.900E+05 CFU/ml
- Counting results (1 MIC, 2 h): 1.700E+06 CFU/ml
- Counting results (1 MIC, 4 h): 2.500E+07 CFU/ml
- Counting results (1 MIC, 6 h): 1.600E+08 CFU/ml
- Counting results (1 MIC, 24 h): 1.300E+08 CFU/ml
- Counting results (2 MIC, 0 h): 3.900E+05 CFU/ml
- Counting results (2 MIC, 2 h): 1.200E+05 CFU/ml
- Counting results (2 MIC, 4 h): 1.300E+04 CFU/ml
- Counting results (2 MIC, 6 h): 1.400E+04 CFU/ml
- Counting results (2 MIC, 24 h): 3.500E+06 CFU/ml
- Counting results (4 MIC, 0 h): 3.900E+05 CFU/ml
- Counting results (4 MIC, 2 h): 6.000E+03 CFU/ml
- Counting results (4 MIC, 4 h): 6.000E+02 CFU/ml
- Counting results (4 MIC, 6 h): 4.000E+02 CFU/ml
- Counting results (4 MIC, 24 h): 1.000E+02 CFU/ml
- Counting results (8 MIC, 0 h): 3.900E+05 CFU/ml
- Counting results (8 MIC, 2 h): 5.000E+02 CFU/ml
- Counting results (8 MIC, 4 h): 1.000E+02 CFU/ml
- Counting results (8 MIC, 6 h): 1.000E+02 CFU/ml
- Counting results (8 MIC, 24 h): 1.000E+02 CFU/ml
- Counting results (16 MIC, 0 h): 3.900E+05 CFU/ml
- Counting results (16 MIC, 2 h): 3.000E+02 CFU/ml
- Counting results (16 MIC, 4 h): 1.000E+02 CFU/ml
- Counting results (16 MIC, 6 h): 3.000E+02 CFU/ml
- Counting results (16 MIC, 24 h): 1.000E+02 CFU/ml
- Time to obtain bactericidal effect at 4 MIC (16116/5.10^5 CFU/ml, >=3 log10 decrease in CFU): 4 to 6 h
- Counting results (¼ MIC, 0 h): 3.900E+05 CFU/ml
- Counting results (¼ MIC, 2 h): 2.000E+06 CFU/ml
- Counting results (¼ MIC, 4 h): 4.000E+07 CFU/ml
- Counting results (¼ MIC, 6 h): 3.000E+08 CFU/ml
- Counting results (¼ MIC, 24 h): 1.900E+09 CFU/ml
- Counting results (½ MIC, 0 h): 3.900E+05 CFU/ml
- Counting results (½ MIC, 2 h): 1.700E+06 CFU/ml
- Counting results (½ MIC, 4 h): 3.000E+07 CFU/ml
- Counting results (½ MIC, 6 h): 1.400E+08 CFU/ml
- Counting results (½ MIC, 24 h): 2.600E+08 CFU/ml

Reference: US11331289B2, “Antimicrobial composition” (priority 2017, dated 2022)
